Here are results for nine compounds from US20160031935A1, “SMALL MOLECULE MODULATORS OF PCSK9 AND METHODS OF USE THEREOF” (ADAERATA, LIMITED PARTNERSHIP, priority 2013, published 2016).

The subject of data set [1] is cell surface LDLR activity. As to the kind of experiment: Dil-LDL uptake assay in HepG2 naïve cells. Type of data set: cell-based, human. To be noted: for activity at 10 µM: Homo sapiens, 24 h, HepG2 cells, read-out: Dil-LDL uptake (% DMSO Cnt). Here is the method:
HepG2 naive cells and HEK293 naive cells were plated in 96-well plates (CellBind black plate with clear bottom (Corning; Cat #3340)) at a density of 25,000 cells/well, in complete media (DMEM high glucose (+sodium pyruvate for HepG2) (Wisent)+10% FBS). After 20 hours, cells were washed for 30 min with serum free DMEM media (100 μl/well), the wash media was removed and replaced with 100 μl/well of incubation media (DMEM high glucose (+sodium pyruvate for HepG2) (Wisent)+0.07% BSA (Sigma-Aldrich)) containing compound at various concentrations ([…]) or DMSO control (0.4% final). Each condition was prepared in triplicates. After 6 hours incubation at 37° C., Dil-LDL (Biomedical Technologies (Cat #BT-904)) was added to the cell media (5 μl) at 5 μg/ml final concentration, and cells returned to tissue culture incubator for another 18 hours (a total of 24 hours incubation with the compounds). After 2 washes (200 μl/well) with ice-cold D-PBS (Wisent) and aspiration of the final wash, plates were scanned (bottom read) on a SpectraMax GeminiEM™ plate reader (Molecular Devices). For each well, raw Dil-LDL uptake was measured as the average fluorescence intensity (RFU) (ex: 520 nm/em: 575 nm, cutoff: 550 nm) of 9 readings in 3 different points in the well. Dil-LDL uptake in each well was corrected for total number of cells by performing a CyQuant™ cell assay (Invitrogen; Cat #C7026). Namely, after recording the Dil fluorescence, the plate was frozen overnight at −80° C. The next day, the plates were thawed at room temperature, the cells lysed according to the manufacturer's protocol, and the number of cells/well was determined by measuring the fluorescence (RFU) of the CyQuant green fluorescent dye bound to the cellular nucleic acids (ex: 485 nm/em: 538 nm, cutoff: 515 nm). For each condition, Dil-RFU was divided by CyQuant-RFU. Corrected dil-LDL uptake is reported as % DMSO control and was obtained from triplicate wells.
The PCSK9 inhibitory compounds were also characterized using a Dil-LDL fluorescent uptake assay as described in Poirier et al., J. Biol. Chem. 284: 28856-28864, 2009. The method entails the fluorescence measurement of the Dil-LDL cellular incorporation via LDLR internalization (a measurement of cell surface LDLR activity) in human hepatocyte derived HuH7 or HepG2 cell lines, or human embryonic HEK293 cells, in the presence or absence of compounds.
HepG2 naïve cells and HEK293 naïve cells were plated in 96-well plates (CellBind™ black plate with clear bottom (Corning; Cat #3340)). At 20 h post-seeding, cells were incubated in the absence (DMSO or negative control) or in the presence of different concentrations of compounds. Each condition was prepared in triplicates. After 6 hours incubation, Dil-LDL (Biomedical Technologies (Cat #BT-904)) was added to the cell media, and cells returned to tissue culture incubator for another 18 hours. Plates were scanned (bottom read) on a SpectraMax GeminiEM™ plate reader (Molecular Devices). For each well, raw Dil-LDL uptake was measured as the average fluorescence intensity (RFU) (ex: 520 nm/em: 575 nm, cutoff: 550 nm) of 9 readings in 3 different points in the well. Dil-LDL uptake in each well was corrected for total number of cells by performing a CyQuant™ cell assay (Invitrogen, Cat #C7026) according to the manufacturer's instructions. Corrected Dil-LDL uptake is reported as a % of DMSO control and was obtained from triplicate wells.

For another data set, the system named is HepG2 cells. The data set is described as follows: Cell viability assay (cell density during the PCSK9 secretion assay). Format: cell-based, human. To be noted: 33 μM. As to the method:
For the cell viability assay, the cell density of HepG2 cells was measured in the presence of 33 μM of compounds or in the presence of DMSO (control) during the PCSK9 secretion assay described in Example 92. Table II below presents compounds with a low toxicity at 33.3 μM or less.

Regarding `CCCCCCCCCC(=O)N[C@H](C(=O)N[C@@H](Cc1ccccc1)C(=O)N[C@H](C)C(=O)N[C@@H](CCC(N)=O)C(O)C(F)(F)F)C(C)C` (single isomer, unassigned) [Example 60], in data set [1], the activity at 10 µM was 224 ± 43%. Moreover, the “Cell viability (% DMSO Cnt)” value with HepG2 cells is given as 80 % DMSO Cnt.

As for `CC(C)[C@H](NC(=O)c1ccc(-c2ccccc2)cc1)C(=O)N[C@@H](Cc1ccccc1)C(=O)N[C@@H](C)C(=O)NC(CCC(N)=O)C(O)C(F)(F)F` (stereo partly drawn) [Example 24, N-((2S)-1-(((2S)-1-(((2S)-1-((6-Amino-1,1,1-trifluoro-2-hydroxy-6-oxohexan-3-yl)amino)-1-oxopropan-2-yl)amino)-1-oxo-3-phenylpropan-2-yl)amino)-3-methyl-1-oxobutan-2-yl)-[1,1′-biphenyl]-4-carboxamide], in data set [1] (33.3 μM, HepG2 naïve cells), the “Dil-LDL uptake (FIG. 5A, in words)” value was “increase in the Dil-LDL uptake”. The activity at 10 µM in data set [1] worked out at 224 ± 33%.

Take `CC(C)[C@H](NC(=O)c1ccc(-c2ccc(F)cc2)cc1)C(=O)N[C@@H](Cc1ccccc1)C(=O)N[C@@H](C)C(=O)NC(CCC(N)=O)C(O)C(F)(F)F` (stereo partly drawn) [Example 52, N-((2S)-1-(((2S)-1-(((2S)-1-((6-Amino-1,1,1-trifluoro-2-hydroxy-6-oxohexan-3-yl)amino)-1-oxopropan-2-yl)amino)-1-oxo-3-phenylpropan-2-yl)amino)-3-methyl-1-oxobutan-2-yl)-4′-fluoro-[1,1′-biphenyl]-4-carboxamide]: the activity at 10 µM in data set [1] was 254 ± 71%.

As for `CSCC[C@H](NC(=O)c1ccc(-c2ccccc2)cc1)C(=O)N[C@@H](Cc1ccccc1)C(=O)N[C@@H](C)C(=O)NC(CCC(N)=O)C(O)C(F)(F)F` (stereo partly drawn) [Example 75, N-((5S,8S,11S)-17-amino-8-benzyl-11-methyl-6,9,12,17-tetraoxo-14-(2,2,2-trifluoro-1-hydroxyethyl)-2-thia-7,10,13-triazaheptadecan-5-yl)-[1,1′-biphenyl]-4-carboxamide], the activity at 10 µM in data set [1] came to 172 ± 48%.

In the case of `CC(C)[C@H](NC(=O)c1ccc(C2(C(F)(F)F)N=N2)cc1)C(=O)N[C@@H](Cc1ccccc1)C(=O)N[C@@H](C)C(=O)NC(CCC(N)=O)C(O)C(F)(F)F` (stereo partly drawn) [Example 29, N-((2S)-1-(((2S)-1-(((2S)-1-((6-Amino-1,1,1-trifluoro-2-hydroxy-6-oxohexan-3-yl)amino)-1-oxopropan-2-yl)amino)-1-oxo-3-phenylpropan-2-yl)amino)-3-methyl-1-oxobutan-2-yl)-4-(3-(trifluoromethyl)-3H-diazirin-3-yl)benzamide], in data set [1], the activity at 10 µM was determined as 207 ± 21%. The “Cell viability (% DMSO Cnt)” value with HepG2 cells was 88 % DMSO Cnt.

Take `CCCCCCCCCC(=O)N[C@H](C(=O)N[C@@H](Cc1ccccc1)C(=O)N[C@H](C(=O)NC(CCC(N)=O)C(O)C(F)(F)F)C(C)C)C(C)C` (stereo partly drawn) [Example 58, N-((2S)-1-(((2S)-1-(((2S)-1-((6-amino-1,1,1-trifluoro-2-hydroxy-6-oxohexan-3-yl)amino)-3-methyl-1-oxobutan-2-yl)amino)-1-oxo-3-phenylpropan-2-yl)amino)-3-methyl-1-oxobutan-2-yl)decanamide]: the activity at 10 µM in data set [1] turned out to be 261 ± 48%. Besides, in the data set on HepG2 cells, the “Cell viability (% DMSO Cnt)” value came to 93 % DMSO Cnt.

As for `CC(C)[C@H](NC(=O)c1ccc(-c2ccccc2)cc1)C(=O)N[C@H](Cc1ccccc1)C(=O)N[C@@H](C)C(=O)NC(CCC(N)=O)C(O)C(F)(F)F` (stereo partly drawn) [Example 70, N-((2S)-1-(((2R)-1-(((2S)-1-((6-Amino-1,1,1-trifluoro-2-hydroxy-6-oxohexan-3-yl)amino)-1-oxopropan-2-yl)amino)-1-oxo-3-phenylpropan-2-yl)amino)-3-methyl-1-oxobutan-2-yl)-[1,1′-biphenyl]-4-carboxamide], the activity at 10 µM in data set [1] was 224 ± 47%.

On to `CC(C)[C@H](NC(=O)c1ccc(-c2ccccc2)cc1)C(=O)N[C@@H](Cc1ccccc1)C(=O)NC1(C(=O)N[C@@H](CCC(N)=O)C(O)C(F)(F)F)CCC1` (single isomer, unassigned) [Example 66], for which the activity at 10 µM in data set [1] came to 237 ± 59%.

With `CCCCCCCCCC(=O)N[C@H](C(=O)N[C@@H](Cc1ccccc1)C(=O)N[C@@H](Cc1ccccc1)C(=O)NC(CCC(N)=O)C(O)C(F)(F)F)C(C)C` (stereo partly drawn) [Example 59, N-((2S)-1-(((2S)-1-(((2S)-1-((6-Amino-1,1,1-trifluoro-2-hydroxy-6-oxohexan-3-yl)amino)-1-oxo-3-phenylpropan-2-yl)amino)-1-oxo-3-phenylpropan-2-yl)amino)-3-methyl-1-oxobutan-2-yl)decanamide], the activity at 10 µM in data set [1] was determined as 253 ± 75%. Moreover, the “Cell viability (% DMSO Cnt)” value in the data set on HepG2 cells is 83 % DMSO Cnt.
